# Assay results taken from paper PMC5218480 (PLoS ONE, 2017).
# Tested on: MV-4-11 cells
# Assay: Gene expression microarray analysis (Affymetrix PrimeView) and GSEA
# Format: cell-based, human
# Parameters: RFU PODN (11730768_x_at) / Fold change /veh PODN (11730768_x_at) / RFU LINC00158 (11744669_a_at) / Fold change /veh LINC00158 (11744669_a_at) / RFU DUSP10 (11751237_a_at) / Fold change /veh DUSP10 (11751237_a_at) / RFU ID3 (11757404_x_at) / Fold change /veh ID3 (11757404_x_at) / RFU PLEKHG5 (11737974_s_at) / Fold change /veh PLEKHG5 (11737974_s_at) / RFU LRRC4B (11730491_at) / Fold change /veh LRRC4B (11730491_at) / RFU GIMAP4 (11747438_a_at) / Fold change /veh GIMAP4 (11747438_a_at) / RFU KRT8 (11758183_x_at) / Fold change /veh KRT8 (11758183_x_at) / RFU CNN1 (11734310_a_at) / Fold change /veh CNN1 (11734310_a_at) / RFU VPS37D (11726825_at) / Fold change /veh VPS37D (11726825_at) / RFU C10orf10 (11716522_x_at) / Fold change /veh C10orf10 (11716522_x_at) / RFU KIR2DL2 /// KIR2DL4 /// KIR2DL5A /// KIR2DL5B /// KIR2DS1 /// KIR2DS2 /// KIR2DS3 /// KIR2DS4 /// KIR3DL3 /// KIR3DL3 /// KIR3DS1 (11738374_at) / Fold change /veh KIR2DL2 /// KIR2DL4 /// KIR2DL5A /// KIR2DL5B /// KIR2DS1 /// KIR2DS2 /// KIR2DS3 /// KIR2DS4 /// KIR3DL3 /// KIR3DL3 /// KIR3DS1 (11738374_at) / RFU C1QL1 (11718748_at) / Fold change /veh C1QL1 (11718748_at) / RFU TMPRSS4 (11747572_a_at) / Fold change /veh TMPRSS4 (11747572_a_at) / RFU HAMP (11756126_x_at) / Fold change /veh HAMP (11756126_x_at) / RFU RNFT2 (11725882_a_at) / Fold change /veh RNFT2 (11725882_a_at) / RFU NR4A2 (11747474_a_at) / Fold change /veh NR4A2 (11747474_a_at) / RFU ABCC12 (11746883_a_at) / Fold change /veh ABCC12 (11746883_a_at) / RFU TMEM136 (11760407_x_at) / Fold change /veh TMEM136 (11760407_x_at) / RFU CLDN22 /// WWC2 (11732394_at) / Fold change /veh CLDN22 /// WWC2 (11732394_at) / RFU HLA-DPB1 (11760878_x_at) / Fold change /veh HLA-DPB1 (11760878_x_at) / RFU SPINT1 (11716480_a_at) / Fold change /veh SPINT1 (11716480_a_at) / RFU GAP43 (11754022_s_at) / Fold change /veh GAP43 (11754022_s_at) / RFU A4GNT (11735810_at) / Fold change /veh A4GNT (11735810_at) / RFU PRB3 (11715151_x_at) / Fold change /veh PRB3 (11715151_x_at) / RFU TUBB4B (11761932_at) / Fold change /veh TUBB4B (11761932_at) / RFU CAPN14 (11732068_a_at) / Fold change /veh CAPN14 (11732068_a_at) / RFU TMCC2 (11721928_a_at) / Fold change /veh TMCC2 (11721928_a_at) / RFU IRGQ (11745062_a_at) / Fold change /veh IRGQ (11745062_a_at) / RFU FAM174B (11720279_a_at) / Fold change /veh FAM174B (11720279_a_at) / RFU TMPRSS4 (11748680_a_at) / Fold change /veh TMPRSS4 (11748680_a_at) / RFU FAM212B (11763350_a_at) / Fold change /veh FAM212B (11763350_a_at) / RFU PLEKHG5 (11743358_a_at) / Fold change /veh PLEKHG5 (11743358_a_at) / RFU ZSCAN30 (11745921_a_at) / Fold change /veh ZSCAN30 (11745921_a_at) / RFU CMKLR1 (11741424_a_at) / Fold change /veh CMKLR1 (11741424_a_at) / RFU LOC101060620 /// MAPK8IP1 (11723275_at) / Fold change /veh LOC101060620 /// MAPK8IP1 (11723275_at) / RFU SPTSSB (11747773_x_at) / Fold change /veh SPTSSB (11747773_x_at) / RFU PRSS12 (11739890_at) / Fold change /veh PRSS12 (11739890_at) / RFU BIN1 (11741810_x_at) / Fold change /veh BIN1 (11741810_x_at) / RFU WNT11 (11732464_a_at) / Fold change /veh WNT11 (11732464_a_at) / RFU C10orf10 (11716521_a_at) / Fold change /veh C10orf10 (11716521_a_at) / RFU C5orf56 (11738089_at) / Fold change /veh C5orf56 (11738089_at) / RFU CYB561 (11721691_x_at) / Fold change /veh CYB561 (11721691_x_at) / RFU ANKRD19P (11752326_a_at) / Fold change /veh ANKRD19P (11752326_a_at) / RFU OR2T12 /// OR2T33 /// OR2T8 (11738714_s_at) / Fold change /veh OR2T12 /// OR2T33 /// OR2T8 (11738714_s_at) / RFU VCAN (11748164_a_at) / Fold change /veh VCAN (11748164_a_at) / RFU JSRP1 (11732532_at) / Fold change /veh JSRP1 (11732532_at) / RFU KRTAP10-11 (11738290_x_at) / Fold change /veh KRTAP10-11 (11738290_x_at) / RFU MYO3A (11730013_a_at) / Fold change /veh MYO3A (11730013_a_at) / RFU EBF3 (11725865_a_at) / Fold change /veh EBF3 (11725865_a_at) / RFU CAMK2N1 (11719241_x_at) / Fold change /veh CAMK2N1 (11719241_x_at) / RFU C5orf56 (11738088_a_at) / Fold change /veh C5orf56 (11738088_a_at) / RFU OLFML3 (11715873_a_at) / Fold change /veh OLFML3 (11715873_a_at) / RFU LOC100653217 /// NTM (11731650_a_at) / Fold change /veh LOC100653217 /// NTM (11731650_a_at) / RFU MAPK11 (11762145_a_at) / Fold change /veh MAPK11 (11762145_a_at) / RFU FIZ1 (11724087_x_at) / Fold change /veh FIZ1 (11724087_x_at) / RFU OASL (11726364_x_at) / Fold change /veh OASL (11726364_x_at) / RFU SOX15 (11748057_x_at) / Fold change /veh SOX15 (11748057_x_at) / RFU CD79A (11719716_a_at) / Fold change /veh CD79A (11719716_a_at) / RFU HIST1H1D (11736915_at) / Fold change /veh HIST1H1D (11736915_at) / RFU CASKIN2 (11723855_a_at) / Fold change /veh CASKIN2 (11723855_a_at) / RFU LOC730098 (11760151_x_at) / Fold change /veh LOC730098 (11760151_x_at) / RFU OR4N2 (11742367_at) / Fold change /veh OR4N2 (11742367_at) / RFU PRRT2 (11749266_a_at) / Fold change /veh PRRT2 (11749266_a_at) / RFU SNX32 (11753110_a_at) / Fold change /veh SNX32 (11753110_a_at) / RFU CDHR5 (11726645_a_at) / Fold change /veh CDHR5 (11726645_a_at) / RFU RCAN1 (11760418_a_at) / Fold change /veh RCAN1 (11760418_a_at) / RFU FAM167A (11723789_a_at) / Fold change /veh FAM167A (11723789_a_at) / RFU FAM26E (11764081_at) / Fold change /veh FAM26E (11764081_at) / RFU ISYNA1 (11749810_s_at) / Fold change /veh ISYNA1 (11749810_s_at) / RFU ACY1 (11761880_at) / Fold change /veh ACY1 (11761880_at) / RFU 11764098_at / Fold change /veh 11764098_at / RFU SAMD14 (11745864_x_at) / Fold change /veh SAMD14 (11745864_x_at) / RFU NPB (11741838_a_at) / Fold change /veh NPB (11741838_a_at) / RFU TMPRSS6 (11731388_a_at) / Fold change /veh TMPRSS6 (11731388_a_at) / RFU KRTAP10-2 (11738614_at) / Fold change /veh KRTAP10-2 (11738614_at) / RFU ARHGAP8 /// PRR5-ARHGAP8 (11727945_x_at) / Fold change /veh ARHGAP8 /// PRR5-ARHGAP8 (11727945_x_at) / RFU KRTAP5-7 /// NADSYN1 (11734609_at) / Fold change /veh KRTAP5-7 /// NADSYN1 (11734609_at) / RFU RASL12 (11751679_a_at) / Fold change /veh RASL12 (11751679_a_at) / RFU CDKN2B (11736163_a_at) / Fold change /veh CDKN2B (11736163_a_at) / RFU PRF1 (11729649_at) / Fold change /veh PRF1 (11729649_at) / RFU, ZNF638 /// ZNF638-IT1 / Fold change vs veh, ZNF638 /// ZNF638-IT1 / RFU, PANK3 / Fold change vs veh, PANK3 / RFU, SH3YL1 / Fold change vs veh, SH3YL1 / RFU, ZEB2 / Fold change vs veh, ZEB2 / RFU, NRIP1 / Fold change vs veh, NRIP1 / RFU, PTTG1IP / Fold change vs veh, PTTG1IP / RFU, CAPN2 / Fold change vs veh, CAPN2 / RFU, MED14 / Fold change vs veh, MED14 / RFU, SNORA58 / Fold change vs veh, SNORA58 / RFU, C1orf63 / Fold change vs veh, C1orf63 / RFU, LRRFIP1 / Fold change vs veh, LRRFIP1 / RFU, NDUFAF7 / Fold change vs veh, NDUFAF7 / RFU, SLC12A2 / Fold change vs veh, SLC12A2 / RFU, IBTK / Fold change vs veh, IBTK / RFU, ESF1 / Fold change vs veh, ESF1 / Fold change vs veh, TMEM50B / RFU, TAOK1 / Fold change vs veh, TAOK1 / RFU, ACBD3 / Fold change vs veh, ACBD3 / RFU, TMA16 / Fold change vs veh, TMA16 / RFU, RWDD3 / Fold change vs veh, RWDD3 / RFU, BCAT1 / Fold change vs veh, BCAT1 / RFU, EDEM3 / Fold change vs veh, EDEM3 / RFU, TMEM33 / Fold change vs veh, TMEM33 / RFU, WDR75 / Fold change vs veh, WDR75 / RFU, AHCTF1 / Fold change vs veh, AHCTF1 / RFU, TFRC / Fold change vs veh, TFRC / RFU, ZDHHC17 / Fold change vs veh, ZDHHC17 / RFU, NOM1 / Fold change vs veh, NOM1 / RFU, ARL8B / Fold change vs veh, ARL8B / RFU, ZBTB11 / Fold change vs veh, ZBTB11 / RFU, TAMM41 / Fold change vs veh, TAMM41 / RFU, KIAA1704 /// LOC100996395 / Fold change vs veh, KIAA1704 /// LOC100996395 / RFU, ING1 / Fold change vs veh, ING1 / RFU, TRMT61B / Fold change vs veh, TRMT61B / RFU, FUBP3 / Fold change vs veh, FUBP3 / RFU, TP53 / Fold change vs veh, TP53 / RFU, TNKS2 / Fold change vs veh, TNKS2 / RFU, ZFP14 / Fold change vs veh, ZFP14 / RFU, ACTR2 / Fold change vs veh, ACTR2 / RFU, PPP3R1 / Fold change vs veh, PPP3R1 / RFU, PIK3R1 / Fold change vs veh, PIK3R1 / RFU, HNRNPA1 / Fold change vs veh, HNRNPA1 / RFU, RNF170 / Fold change vs veh, RNF170 / RFU, ZNF28 / Fold change vs veh, ZNF28 / RFU, RNGTT / Fold change vs veh, RNGTT / RFU, OGT / Fold change vs veh, OGT / RFU, BRD1 / Fold change vs veh, BRD1 / RFU, MARS / Fold change vs veh, MARS / RFU, ZNF655 / Fold change vs veh, ZNF655 / RFU, FAHD1 / Fold change vs veh, FAHD1 / RFU, BDP1 / Fold change vs veh, BDP1 / RFU, LRRCC1 / Fold change vs veh, LRRCC1 / RFU, ARID1A / Fold change vs veh, ARID1A / RFU, ZNF146 / Fold change vs veh, ZNF146 / RFU, ZNF330 / Fold change vs veh, ZNF330 / RFU, GPN3 / Fold change vs veh, GPN3 / RFU, C9orf123 / Fold change vs veh, C9orf123 / RFU, N4BP2L2 / Fold change vs veh, N4BP2L2 / RFU, ARFIP1 / Fold change vs veh, ARFIP1 / RFU, FAM179B / Fold change vs veh, FAM179B / RFU, BCL10 / Fold change vs veh, BCL10 / RFU, UHRF1BP1L / Fold change vs veh, UHRF1BP1L / RFU, BET1 / Fold change vs veh, BET1 / RFU, CNOT2 / Fold change vs veh, CNOT2 / RFU, ZNF268 / Fold change vs veh, ZNF268 / Fold change vs veh, ZNF507 / RFU, DGCR2 / Fold change vs veh, DGCR2 / RFU, WDSUB1 / Fold change vs veh, WDSUB1 / Fold change vs veh, HSP90B1 /// MIR3652 / RFU, ADSS / Fold change vs veh, ADSS / RFU, GK / Fold change vs veh, GK / RFU, ZNF148 / Fold change vs veh, ZNF148 / RFU, TAF9 / Fold change vs veh, TAF9 / RFU, SLC1A5 / Fold change vs veh, SLC1A5 / RFU, SLMO2 / Fold change vs veh, SLMO2 / RFU, ABCC4 / Fold change vs veh, ABCC4 / RFU, LOC101060439 /// RAP1B / Fold change vs veh, LOC101060439 /// RAP1B / RFU, RFX7 / Fold change vs veh, RFX7 / RFU, GTPBP10 / Fold change vs veh, GTPBP10 / RFU, CNEP1R1 / Fold change vs veh, CNEP1R1 / RFU, BIVM-ERCC5 /// ERCC5 / Fold change vs veh, BIVM-ERCC5 /// ERCC5 / RFU, ILF3 / Fold change vs veh, ILF3 / RFU 11762660_at / Fold change /veh 11762660_at / RFU VCAN (11757783_s_at) / Fold change /veh VCAN (11757783_s_at) / RFU DDX43 (11728927_at) / Fold change /veh DDX43 (11728927_at) / RFU KRT8 (11758188_x_at) / Fold change /veh KRT8 (11758188_x_at) / RFU NKD1 (11759106_at) / Fold change /veh NKD1 (11759106_at) / RFU SRD5A1 (11742802_a_at) / Fold change /veh SRD5A1 (11742802_a_at) / RFU TPSAB1 /// TPSB2 (11721975_s_at) / Fold change /veh TPSAB1 /// TPSB2 (11721975_s_at) / RFU GSTM3 (11746129_a_at) / Fold change /veh GSTM3 (11746129_a_at) / RFU IL23R (11737362_x_at) / Fold change /veh IL23R (11737362_x_at) / RFU TMEM51 (11727254_a_at) / Fold change /veh TMEM51 (11727254_a_at) / RFU PIWIL2 (11732686_x_at) / Fold change /veh PIWIL2 (11732686_x_at) / RFU ORM1 (11744905_x_at) / Fold change /veh ORM1 (11744905_x_at) / RFU CCDC152 (11743942_at) / Fold change /veh CCDC152 (11743942_at) / RFU ECM1 (11717891_a_at) / Fold change /veh ECM1 (11717891_a_at) / RFU IL23R (11748794_a_at) / Fold change /veh IL23R (11748794_a_at) / RFU TNFAIP8L3 (11732012_x_at) / Fold change /veh TNFAIP8L3 (11732012_x_at) / RFU MBOAT4 (11741988_at) / Fold change /veh MBOAT4 (11741988_at) / RFU 11764193_at / Fold change /veh 11764193_at / RFU TMEM53 (11763286_at) / Fold change /veh TMEM53 (11763286_at) / RFU MAGEB2 (11727129_at) / Fold change /veh MAGEB2 (11727129_at) / RFU TMEM200A (11744735_a_at) / Fold change /veh TMEM200A (11744735_a_at) / RFU CCDC152 (11751479_a_at) / Fold change /veh CCDC152 (11751479_a_at) / RFU FAM211A (11726209_a_at) / Fold change /veh FAM211A (11726209_a_at) / RFU RGS16 (11746705_a_at) / Fold change /veh RGS16 (11746705_a_at) / RFU VCAN (11755009_s_at) / Fold change /veh VCAN (11755009_s_at) / RFU RHOB (11743442_s_at) / Fold change /veh RHOB (11743442_s_at) / RFU RGS16 (11720943_a_at) / Fold change /veh RGS16 (11720943_a_at) / RFU RGS16 (11720944_at) / Fold change /veh RGS16 (11720944_at) / RFU, VPS4B / Fold change vs veh, VPS4B / RFU, CREB1 / Fold change vs veh, CREB1 / RFU, DNAJC13 / Fold change vs veh, DNAJC13 / RFU, GNAQ / Fold change vs veh, GNAQ / RFU, CDK5R1 / Fold change vs veh, CDK5R1 / RFU, ZRANB3 / Fold change vs veh, ZRANB3 / RFU, CUL4A / Fold change vs veh, CUL4A / RFU, CCNY / Fold change vs veh, CCNY / RFU, UFL1 / Fold change vs veh, UFL1 / RFU, COG3 / Fold change vs veh, COG3 / RFU, DIAPH2 / Fold change vs veh, DIAPH2 / RFU, SKA2 / Fold change vs veh, SKA2 / RFU, AFF3 / Fold change vs veh, AFF3 / RFU, LMF1 / Fold change vs veh, LMF1 / RFU, IPO11 / Fold change vs veh, IPO11 / RFU, DFFB / Fold change vs veh, DFFB / RFU, FOXP1 / Fold change vs veh, FOXP1 / RFU, CARD8 / Fold change vs veh, CARD8 / RFU, STRN3 / Fold change vs veh, STRN3 / RFU, ADK / Fold change vs veh, ADK / RFU, RASSF2 / Fold change vs veh, RASSF2 / RFU, WIPF1 / Fold change vs veh, WIPF1 / RFU, LARP1B / Fold change vs veh, LARP1B / RFU, RASA1 / Fold change vs veh, RASA1 / RFU, RB1 / Fold change vs veh, RB1 / RFU, PPFIA1 / Fold change vs veh, PPFIA1 / RFU, MAT2A / Fold change vs veh, MAT2A / RFU, CCT5 / Fold change vs veh, CCT5 / RFU, WDR92 / Fold change vs veh, WDR92 / RFU, CUX1 / Fold change vs veh, CUX1 / RFU, TTC7A / Fold change vs veh, TTC7A / RFU, TMEM135 / Fold change vs veh, TMEM135 / RFU, DEPTOR / Fold change vs veh, DEPTOR / RFU, CPM / Fold change vs veh, CPM / RFU, DNAJB6 / Fold change vs veh, DNAJB6 / RFU, CACNA2D3 / Fold change vs veh, CACNA2D3 / RFU, DTX4 / Fold change vs veh, DTX4 / RFU, TFCP2 / Fold change vs veh, TFCP2 / RFU, GMCL1 /// GMCL1P1 / Fold change vs veh, GMCL1 /// GMCL1P1 / RFU, AEBP2 / Fold change vs veh, AEBP2 / RFU, SNHG1 /// SNORD22 /// SNORD25 /// SNORD26 /// SNORD27 /// SNORD28 /// SNORD29 /// SNORD31 / Fold change vs veh, SNHG1 /// SNORD22 /// SNORD25 /// SNORD26 /// SNORD27 /// SNORD28 /// SNORD29 /// SNORD31 / Fold change (Aza/veh), C12orf56 (ProbeSet 11735607_a_at) / Fold change (ACY-1035/veh), C12orf56 (ProbeSet 11735607_a_at) / Fold change (Aza/veh), FGFR1OP (ProbeSet 11751329_s_at) / Fold change (ACY-1035/veh), FGFR1OP (ProbeSet 11751329_s_at) / Fold change (Aza/veh), VPS36 (ProbeSet 11739960_a_at) / Fold change (ACY-1035/veh), VPS36 (ProbeSet 11739960_a_at) / RFU SYPL1 (11715823_x_at) / Fold change /veh SYPL1 (11715823_x_at) / RFU IGFBP7 (11715501_s_at) / Fold change /veh IGFBP7 (11715501_s_at) / RFU REEP3 (11722064_at) / Fold change /veh REEP3 (11722064_at) / RFU IGLL1 (11728026_x_at) / Fold change /veh IGLL1 (11728026_x_at): dose or concentration left out as unconfirmed
# Settings: ProbeSet 11743286_at; LIST D
structure (smiles),measurement,value
Nc1ccc(-c2cccs2)cc1NC(=O)c1ccc2c(c1)cc(C1CC1)n2CCN1CCOCC1 [ACY-1035],"Fold change vs veh, DTX4",0.97
